According to US7794712B2, “Production of mutant strain of Aspergillus fumigatus, method of assay for inhibiting siderophore biosynthesis and diagnostic method for detecting likely Aspergillus fumigatus infection” (priority 2004, dated 2010):
Several values for one entry are separate records, joined by “and”; a condition that tells them apart may be missing. Equal values may be shown once.

What was measured:
[1] = test system: invasive aspergillosis; details: with prophylaxis and treatment; cited from earlier work
[2] = test system: A. fumigatus 13073; assay: Growth scored by A600 in 96-well plates with or without iron; type: cell-based, Aspergillus fumigatus; details: 48 hours
Procedure: Siderophore production and growth was scored by using one antibiotic (amphotericin B) with two types of media (Neilands' with and without citrate), using the same spore concentrations as given above, but a shorter incubation time. Generally, this portion of the assay would be carried out when there was a potential inhibitor which scored positively in the first round of screening. Growth is scored with and without iron in the media.
(§1) Three identical plates were set up: one filter plate and two sterile clear 96-well plates. The clear plates were used to score growth, and the filter plate was used to detect siderophores. Columns 1-6 contained Neilands' medium without citrate and amphotericin 0-2 at g/ml. Columns 7-12 contained Neilands' medium with citrate and amphotericin at […]. The rows were set up with A. fumigatus as described above, but two sets of each were set up to be in the two plates. The spores from the previous experiment were stored at −20° C. in PBS, in siliconized tubes, at 2×10^8 conidia/ml, to facilitate these experiments. Plates were incubated for 48 hours at 37° C. without shaking.
(§2) The filter plate was centrifuged at 1000×g for 10 minutes and the liquids caught in a clear non-sterile plate, to which FeCl3 was added. The plate was allowed to sit and develop orange colour, and was then read at 440 nm. The clear plates (one without Fe and one with Fe added to growth medium from the beginning) were read at 600 nm (A600). In the result, iron enhanced conidiation. Some wells of the filter plate were lightly conidiated and would not drain. These were hand pipetted.

[3] = test system: A. fumigatus 13073; assay: Siderophore secretion inhibitor assay (A440 after FeCl3 addition); type: cell-based, Aspergillus fumigatus; details: for A440 (ferrated siderophores): 3 days; for Siderophore production as measured by A440: Neilands' medium without citrate, 48 hours
Source text: In this example 96-well sterile polystyrene filter plates as described above with white Duropore membranes at the base of the plate (Millipore) were used. The plates include a thick plastic layer under the wells, which has a one-way valve function that directs fluid into a receiving 96-well plate when the filter plate is subjected to a vacuum manifold or a centrifugal force. This layer can be peeled off if the membranes are to be sampled (punched) later.
Cultures were set up in the filter plates, with controls and inhibitors to be tested. After inclubation, culture fluid was pulled into a 96-well receiver plate, using the Beckman centrifuge and a JS 5.3 rotor designed to take 96-well plates. FeCl3 was added to the receiver plates, and A430 (general siderophores) or A440 (max for TAF) was read. Growth was scored in the plate by reading A600.
To test this method, different antibiotics were used to show inhibition of siderophore production by A. fumigatus 13073, as no inhibitors for the SidA gene product are currently known. Suitable ranges of concentrations of amphotericin B (fungizone), hygromycin, and nystatin were calculated based on the literature. Spores were harvested from A. fumigatus 13073 into PBS Tween, then washed once with PBS and counted. They were then diluted into Neilands' medium (without citrate) to give solutions of 2×10^5 and 2×10^6/ml. 100 μl of 2× spores and 100 μl of 2× antibiotics to yield a volume of 200 μl of Neilands' medium in each well, with the desired final concentrations of spores, 10^5 or 10^6/ml.
Antibiotics were prepared as follows. Amphotericin B came as a liquid solution, 250 µg/ml. […] Therefore 0, 0.125, 0.25, 0.5, 1 and […] final concentration was used. Nystatin was stored it in ˜1 mg dry aliquots at −20 C, and was prepared at a concentration of 2 mg/ml in DMSO for dilution into Neilands' media. According to reported information, nystatin should be effective at 1.5 to 6.5 µg/ml; therefore, 0, 0.5, 1, 5, 10 and 50 µg/ml were used as the final concentrations. Hygromycin gold stock was in solution at 100 mg/ml, and 0, 25, 50, 100, 150 and 200 µg/ml were used as the final concentrations in Neilands' medium. Plates were incubated for 3 days at 37° C. with shaking.
To test for siderophores, 20 μL of a solution of 2 mM FeCl3 in 10 mM HCl was added to each well in the receiver plates and the A440 was recorded on a plate reader. […] An increase in A440 indicates a more intense orange-red colour that develops in the presence of ferrated siderophores. […] Because 3-day incubation produces conidia, shorter incubation periods may be preferable.
as §1, §2

C[C@@H]1[C@H](O)[C@@H](C)/C=C/C=C/C=C/C=C/C=C/C=C/C=C/[C@H](O[C@@H]2O[C@H](C)[C@@H](O)[C@H](N)[C@@H]2O)C[C@@H]2O[C@](O)(C[C@@H](O)C[C@@H](O)[C@H](O)CC[C@@H](O)C[C@@H](O)CC(=O)O[C@H]1C)C[C@H](O)[C@H]2C(=O)O [amphotericin B]
Mortality rate if the disease spreads to the central nervous system [1]: ~100% | Mortality rate, pulmonary aspergillosis [1]: 65% | Effect of iron on growth inhibition ([2]; Neilands' medium with vs without Fe): addition of iron did not change the pattern of growth inhibition | Growth as measured by A600 ([2]; amphotericin B 0.13 μg/ml, 1000000 spores/ml, Neilands' medium without citrate or Fe): 0.137 and 0.113 and 0.168 | Growth as measured by A600 ([2]; amphotericin B 0.13 μg/ml, 1000000 spores/ml, Neilands' medium without citrate with Fe): 0.139 and 0.113 and 0.169 | Growth as measured by A600 ([2]; amphotericin B 0.25 μg/ml, 100000 spores/ml, Neilands' medium without citrate or Fe): 0.068 and 0.083 and 0.076 | Growth as measured by A600 ([2]; amphotericin B 0.25 μg/ml, 100000 spores/ml, Neilands' medium without citrate with Fe): 0.067 and 0.091 and 0.076 | Growth as measured by A600 ([2]; amphotericin B 0.25 μg/ml, 1000000 spores/ml, Neilands' medium without citrate or Fe): 0.111 and 0.126 and 0.157 | Growth as measured by A600 ([2]; amphotericin B 0.25 μg/ml, 1000000 spores/ml, Neilands' medium without citrate with Fe): 0.11 and 0.126 and 0.157 | Growth as measured by A600 ([2]; amphotericin B 0.50 μg/ml, 100000 spores/ml, Neilands' medium without citrate or Fe): 0.035 | Growth as measured by A600 ([2]; amphotericin B 0.5 μg/ml, 100000 spores/ml, Neilands' medium without citrate with Fe): 0.035 and 0.034 | Growth as measured by A600 ([2]; amphotericin B 0.50 μg/ml, 1000000 spores/ml, Neilands' medium without citrate or Fe): 0.038 and 0.039 and 0.037 | Growth as measured by A600 ([2]; amphotericin B 0.5 μg/ml, 1000000 spores/ml, Neilands' medium without citrate with Fe): 0.038 and 0.039 | Growth as measured by A600 ([2]; amphotericin B 1 μg/ml, 100000 spores/ml, Neilands' medium without citrate or Fe): 0.035 and 0.036 | Growth as measured by A600 ([2]; amphotericin B 1 μg/ml, 100000 spores/ml, Neilands' medium without citrate with Fe): 0.035 | Growth as measured by A600 ([2]; amphotericin B 1 μg/ml, 1000000 spores/ml, Neilands' medium without citrate or Fe): 0.039 and 0.038 | Growth as measured by A600 ([2]; amphotericin B 1 μg/ml, 1000000 spores/ml, Neilands' medium without citrate with Fe): 0.039 | Growth as measured by A600 ([2]; amphotericin B 2 μg/ml, 100000 spores/ml, Neilands' medium without citrate or Fe): 0.035 and 0.036 | Growth as measured by A600 ([2]; amphotericin B 2 μg/ml, 100000 spores/ml, Neilands' medium without citrate with Fe): 0.035 | Growth as measured by A600 ([2]; amphotericin B 2 μg/ml, 1000000 spores/ml, Neilands' medium without citrate or Fe): 0.038 and 0.039 | Growth as measured by A600 ([2]; amphotericin B 2 μg/ml, 1000000 spores/ml, Neilands' medium without citrate with Fe): 0.038 and 0.039 | A440 (ferrated siderophores) ([3]; amphotericin B 0.13 μg/ml, 1.00E+05 spores/ml): 0.178 and 0.156 and 0.145 | A440 (ferrated siderophores) ([3]; amphotericin B 0.13 μg/ml, 1.00E+06 spores/ml): 0.211 and 0.200 | Siderophore production as measured by A440 ([3]; amphotericin B 0.13 μg/ml, 100000 spores/ml): 0.047 and 0.042 | A440 (ferrated siderophores) ([3]; amphotericin B 0.25 μg/ml, 1.00E+05 spores/ml): 0.038 and 0.039 and 0.040 | A440 (ferrated siderophores) ([3]; amphotericin B 0.25 μg/ml, 1.00E+06 spores/ml): 0.085 and 0.168 and 0.130 | Siderophore production as measured by A440 ([3]; amphotericin B 0.25 μg/ml, 100000 spores/ml): 0.044 and 0.043 | Siderophore production as measured by A440 ([3]; amphotericin B 0.25 μg/ml, 1000000 spores/ml): 0.047 and 0.046 and 0.048 | A440 (ferrated siderophores) ([3]; amphotericin B 0.50 μg/ml, 1.00E+05 spores/ml): 0.042 and 0.040 and 0.039 | A440 (ferrated siderophores) ([3]; amphotericin B 0.50 μg/ml, 1.00E+06 spores/ml): 0.038 and 0.042 and 0.035 | Siderophore production as measured by A440 ([3]; amphotericin B 0.50 μg/ml, 100000 spores/ml): 0.042 and 0.043 and 0.046 | Siderophore production as measured by A440 ([3]; amphotericin B 0.50 μg/ml, 1000000 spores/ml): 0.043 and 0.042 | A440 (ferrated siderophores) ([3]; amphotericin B 1.00 μg/ml, 1.00E+05 spores/ml): 0.032 and 0.039 and 0.036 | Siderophore production as measured by A440 ([3]; amphotericin B 1 μg/ml, 100000 spores/ml): 0.042 and 0.041 and 0.045 | Siderophore production as measured by A440 ([3]; amphotericin B 1 μg/ml, 1000000 spores/ml): 0.05 and 0.047 | A440 (ferrated siderophores) ([3]; amphotericin B 2.00 μg/ml, 1.00E+05 spores/ml): 0.041 and 0.034 | A440 (ferrated siderophores) ([3]; amphotericin B 2.00 μg/ml, 1.00E+06 spores/ml): 0.036 and 0.034 | Siderophore production as measured by A440 ([3]; amphotericin B 2 μg/ml, 100000 spores/ml): 0.045 | Siderophore production as measured by A440 ([3]; amphotericin B 2 μg/ml, 1000000 spores/ml): 0.044 and 0.043 and 0.045
